According to US8192962B2, “Processes for detecting toxic substances” (Daikin Industries, Ltd., priority 2001, dated 2012):

Test system: Genes belonging to other category
Experiment: DNA chip mRNA expression in yeast, genes belonging to other category (Table 9)
Type: cell-based, Saccharomyces cerevisiae S288C
Method in brief: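 Chemical exposure: 2 h, log-phase S. cerevisiae S288C, YPD, 25° C., dose set to inhibit growth without death. Profiling: mRNA labeled by reverse transcription with Cy3- or Cy5-dUTP, hybridized to whole-genome array. Output: fluorescence ratio against untreated culture.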

Structure (SMILES): S=C([S-])NCCNC(=S)[S-].[Zn+2] [(11), zinc N,N′-ethylenebis(dithiocarbamate)]
- The level of expressed mRNA in the presence of chemical substance/The level of expressed mRNA in the absence of chemical substance (yeast gene YAR010C): 0.9
- The level of expressed mRNA in the presence of chemical substance/The level of expressed mRNA in the absence of chemical substance (yeast gene YBL005W-A): 0.8
- The level of expressed mRNA in the presence of chemical substance/The level of expressed mRNA in the absence of chemical substance (yeast gene YBL041W): 1.6
- The level of expressed mRNA in the presence of chemical substance/The level of expressed mRNA in the absence of chemical substance (yeast gene YBL043W): 1.5
- The level of expressed mRNA in the presence of chemical substance/The level of expressed mRNA in the absence of chemical substance (yeast gene YBL078C): 4.6
- The level of expressed mRNA in the presence of chemical substance/The level of expressed mRNA in the absence of chemical substance (yeast gene YBL101C): 0.8
- The level of expressed mRNA in the presence of chemical substance/The level of expressed mRNA in the absence of chemical substance (yeast gene YBL101W-A): 1.2
- The level of expressed mRNA in the presence of chemical substance/The level of expressed mRNA in the absence of chemical substance (yeast gene YBL102W): 1.2
- The level of expressed mRNA in the presence of chemical substance/The level of expressed mRNA in the absence of chemical substance (yeast gene YBR009C): 0.8
- The level of expressed mRNA in the presence of chemical substance/The level of expressed mRNA in the absence of chemical substance (yeast gene YBR031W): 0.9
- The level of expressed mRNA in the presence of chemical substance/The level of expressed mRNA in the absence of chemical substance (yeast gene YBR128C): 1.3
- The level of expressed mRNA in the presence of chemical substance/The level of expressed mRNA in the absence of chemical substance (yeast gene YBR177C): 0.6
- The level of expressed mRNA in the presence of chemical substance/The level of expressed mRNA in the absence of chemical substance (yeast gene YBR214W): 3.2
- The level of expressed mRNA in the presence of chemical substance/The level of expressed mRNA in the absence of chemical substance (yeast gene YBR239C): 0.7
- The level of expressed mRNA in the presence of chemical substance/The level of expressed mRNA in the absence of chemical substance (yeast gene YBR290W): 1.2
- The level of expressed mRNA in the presence of chemical substance/The level of expressed mRNA in the absence of chemical substance (yeast gene YCL020W): 1.3
- The level of expressed mRNA in the presence of chemical substance/The level of expressed mRNA in the absence of chemical substance (yeast gene YCL027W): 0.9
- The level of expressed mRNA in the presence of chemical substance/The level of expressed mRNA in the absence of chemical substance (yeast gene YCL067C): 1.6
- The level of expressed mRNA in the presence of chemical substance/The level of expressed mRNA in the absence of chemical substance (yeast gene YCR004C): 1.9
- The level of expressed mRNA in the presence of chemical substance/The level of expressed mRNA in the absence of chemical substance (yeast gene YCR039C): 1.2
- The level of expressed mRNA in the presence of chemical substance/The level of expressed mRNA in the absence of chemical substance (yeast gene YCR062W): 1.2
- The level of expressed mRNA in the presence of chemical substance/The level of expressed mRNA in the absence of chemical substance (yeast gene YCR067C): 1.2
- The level of expressed mRNA in the presence of chemical substance/The level of expressed mRNA in the absence of chemical substance (yeast gene YCR069W): 1.3
- The level of expressed mRNA in the presence of chemical substance/The level of expressed mRNA in the absence of chemical substance (yeast gene YCR071C): 1.1
- The level of expressed mRNA in the presence of chemical substance/The level of expressed mRNA in the absence of chemical substance (yeast gene YCR088W): 1.0
- The level of expressed mRNA in the presence of chemical substance/The level of expressed mRNA in the absence of chemical substance (yeast gene YCR096C): 1.4
- The level of expressed mRNA in the presence of chemical substance/The level of expressed mRNA in the absence of chemical substance (yeast gene YCR106W): 1.2
- The level of expressed mRNA in the presence of chemical substance/The level of expressed mRNA in the absence of chemical substance (yeast gene YDL008W): 0.9
- The level of expressed mRNA in the presence of chemical substance/The level of expressed mRNA in the absence of chemical substance (yeast gene YDL061C): 1.4
- The level of expressed mRNA in the presence of chemical substance/The level of expressed mRNA in the absence of chemical substance (yeast gene YDL143W): 1.3
- The level of expressed mRNA in the presence of chemical substance/The level of expressed mRNA in the absence of chemical substance (yeast gene YDL238C): 1.1
- The level of expressed mRNA in the presence of chemical substance/The level of expressed mRNA in the absence of chemical substance (yeast gene YDR055W): 2.2
- The level of expressed mRNA in the presence of chemical substance/The level of expressed mRNA in the absence of chemical substance (yeast gene YDR080W): 1.2
- The level of expressed mRNA in the presence of chemical substance/The level of expressed mRNA in the absence of chemical substance (yeast gene YDR084C): 0.7
- The level of expressed mRNA in the presence of chemical substance/The level of expressed mRNA in the absence of chemical substance (yeast gene YDR085C): 1.7
- The level of expressed mRNA in the presence of chemical substance/The level of expressed mRNA in the absence of chemical substance (yeast gene YDR104C): 1.0
- The level of expressed mRNA in the presence of chemical substance/The level of expressed mRNA in the absence of chemical substance (yeast gene YDR115W): 1.2
- The level of expressed mRNA in the presence of chemical substance/The level of expressed mRNA in the absence of chemical substance (yeast gene YDR181C): 0.8
- The level of expressed mRNA in the presence of chemical substance/The level of expressed mRNA in the absence of chemical substance (yeast gene YDR188W): 0.9
- The level of expressed mRNA in the presence of chemical substance/The level of expressed mRNA in the absence of chemical substance (yeast gene YDR257C): 1.3
- The level of expressed mRNA in the presence of chemical substance/The level of expressed mRNA in the absence of chemical substance (yeast gene YDR259C): 1.2
- The level of expressed mRNA in the presence of chemical substance/The level of expressed mRNA in the absence of chemical substance (yeast gene YDR264C): 0.9
- The level of expressed mRNA in the presence of chemical substance/The level of expressed mRNA in the absence of chemical substance (yeast gene YDR276C): 1.4
- The level of expressed mRNA in the presence of chemical substance/The level of expressed mRNA in the absence of chemical substance (yeast gene YDR304C): 1.2
- The level of expressed mRNA in the presence of chemical substance/The level of expressed mRNA in the absence of chemical substance (yeast gene YDR315C): 1.1
- The level of expressed mRNA in the presence of chemical substance/The level of expressed mRNA in the absence of chemical substance (yeast gene YDR358W): 1.0
- The level of expressed mRNA in the presence of chemical substance/The level of expressed mRNA in the absence of chemical substance (yeast gene YDR378C): 0.8
- The level of expressed mRNA in the presence of chemical substance/The level of expressed mRNA in the absence of chemical substance (yeast gene YDR382W): 1.2
- The level of expressed mRNA in the presence of chemical substance/The level of expressed mRNA in the absence of chemical substance (yeast gene YDR388W): 1.6
- The level of expressed mRNA in the presence of chemical substance/The level of expressed mRNA in the absence of chemical substance (yeast gene YDR407C): 1.2
